# Results published in patent publication US6908919B2, “Substituted polycyclic aryl and heteroaryl pyrazinones useful for selective inhibition of the coagulation cascade” (Pharmacia Corporation, priority 1999, dated 2005).
# Target: Human factor Xa (Homo sapiens, UniProt P00742)
# Assay: Xa Assay
# Format: biochemical
# Design: purchased Enzyme Research Laboratories, South Bend Ind
# Details: not given
# Sequence of Human factor Xa (P00742 41-179 limits assumed): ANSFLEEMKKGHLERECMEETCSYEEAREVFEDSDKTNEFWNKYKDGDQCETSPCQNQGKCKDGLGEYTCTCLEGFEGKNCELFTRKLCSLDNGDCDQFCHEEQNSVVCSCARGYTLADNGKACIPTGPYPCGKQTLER
# Sequence of Human factor Xa (P00742 235-488 limits assumed): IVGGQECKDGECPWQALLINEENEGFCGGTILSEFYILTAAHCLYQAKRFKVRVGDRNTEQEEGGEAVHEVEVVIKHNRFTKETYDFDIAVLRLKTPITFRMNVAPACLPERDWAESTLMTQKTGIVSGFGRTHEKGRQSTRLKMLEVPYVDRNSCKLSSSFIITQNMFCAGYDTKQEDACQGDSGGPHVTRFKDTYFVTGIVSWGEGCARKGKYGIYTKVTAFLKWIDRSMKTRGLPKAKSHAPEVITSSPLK
row,Compound,% Inhibition Factor Xa (100 µM) [%]
1,O=C(Cn1c(-c2ccc(-c3ccccc3)cc2)c(Cl)nc(NCCc2cccc(Cl)c2)c1=O)NCCc1cccnc1 [Example E-0116],4

# Same assay, conditions: at 30 µM
row,Compound,% Inhibition Factor Xa (30 µM) [%]
1,N=C(N)c1ccc(CNC(=O)Cn2c(-c3c(Cl)cccc3Cl)c(Cl)nc(NCCc3ccccc3)c2=O)cc1 [Example 1517-18],0
2,N=C(N)c1ccc(CNC(=O)Cn2c(-c3cccc(N)c3)c(Cl)nc(NCCCN3CCCC3)c2=O)cc1 [1543-27],27
3,CC(C)CNc1nc(Cl)c(-c2cccc(N)c2)n(CC(=O)NCc2ccc(C(=N)N)cc2F)c1=O [1543-38],14
4,N=C(N)c1ccc(CNC(=O)Cn2c(-c3c(Cl)cccc3Cl)c(Cl)nc(NCCc3cccc(Cl)c3)c2=O)cc1 [Example 1517-24],0
5,N=C(N)c1ccc(CNC(=O)Cn2c(-c3cccc(N)c3)c(Cl)nc(NCCN3CCCC3)c2=O)cc1 [1543-03],34
6,N=C(N)c1ccc(CNC(=O)Cn2c(-c3c(Cl)cccc3Cl)c(Cl)nc(NC3CCC3)c2=O)cc1 [Example 1517-12],0
7,N=C(N)c1ccc(CNC(=O)Cn2c(-c3cccc(N)c3)c(Cl)nc(NCCN3CCCCC3)c2=O)cc1 [1543-15],41
8,N=C(N)c1ccc(CNC(=O)Cn2c(-c3cccc(N)c3)c(Cl)nc(NC3CCCC3)c2=O)c(F)c1 [1543-34],20
9,N=C(N)c1ccc(CNC(=O)Cn2c(-c3cccc(N)c3)c(Cl)nc(NCCCn3ccnc3)c2=O)cc1 [1543-07],19
10,CCNc1nc(Cl)c(-c2cccc(N)c2)n(CC(=O)NCc2ccc(C(=N)N)cc2F)c1=O [1543-31],8
11,C[Si](C)(C)CNc1nc(Cl)c(-c2ccccc2)n(CC(=O)NCc2ccc(C(=N)N)cc2)c1=O [Example 1517-36],0

# Now from value to compound:
row,% Inhibition Factor Xa (30 µM) [%],Compound
1,12,CN(C)CCNc1nc(Cl)c(-c2cccc(N)c2)n(CC(=O)NCc2ccc(C(=N)N)cc2)c1=O [1543-09]
2,0,CCCNc1nc(Cl)c(-c2ccccc2)n(CC(=O)NCc2ccc(C(=N)N)cc2)c1=O [Example 1517-33]
3,0,C[C@H](C(=O)NCc1ccc(C(=N)N)cc1)n1c(-c2ccccc2)c(Cl)nc(NCCc2cccc(Cl)c2)c1=O [Example 1517-23]
4,0,N=C(N)c1ccc(CNC(=O)Cn2c(-c3ccccc3)c(Cl)nc(NC3CCCCC3)c2=O)cc1 [Example 1517-25]
5,8,CCCNc1nc(Cl)c(-c2cccc(N)c2)n(CC(=O)NCc2ccc(C(=N)N)cc2F)c1=O [1543-35]
6,10,CC(C)Nc1nc(Cl)c(-c2cccc(N)c2)n(CC(=O)NCc2ccc(C(=N)N)cc2F)c1=O [1543-40]

# Same assay, conditions: at 30 µM inhibitor
row,Compound,% Inhibition Factor Xa (30 µM)
1,N=C(N)c1ccc(CNC(=O)Cn2c(-c3ccccc3)c(Cl)nc(NCc3ccc(Cl)cc3)c2=O)cc1 [1507-46],8%
2,Cc1c(Cl)nc(NCc2ccncc2)c(=O)n1CC(=O)NCc1ccc(C(=N)N)cc1 [1471-3],0%
3,CSc1ccc(N)cc1-c1c(Cl)nc(NC(C)C)c(=O)n1CC(=O)NCc1ccc(C(=N)N)cc1 [Example 76],0%
4,CN(C)CCNc1nc(Cl)c(-c2ccccc2)n(CC(=O)NCc2ccc(C(=N)N)cc2)c1=O [1512-15],6%
5,C[C@@H](C(=O)NCc1ccc(C(=N)N)cc1)n1c(-c2ccccc2)c(Cl)nc(NCc2ccccc2)c1=O [Example 1517-03],0%
6,Cc1c(Cl)nc(NCCc2cccnc2)c(=O)n1CC(=O)NCc1ccc(C(=N)N)cc1 [1471-8],27%
7,N=C(N)c1ccc(CNC(=O)Cn2c(-c3ccccc3)c(Cl)nc(NCc3cc(F)ccc3F)c2=O)cc1 [1512-36],9%
8,CC(C)Nc1ncc(-c2cccc(N)c2)n(CC(=O)NCc2ccc(C(=N)N)c(F)c2)c1=O [Example 43],0%
9,N=C(N)c1ccc(CNC(=O)Cn2c(-c3ccccc3)c(Cl)nc(NCc3cc(Cl)ccc3Cl)c2=O)cc1 [1512-35],4%
10,N=C(N)c1ccc(CNC(=O)Cn2c(-c3ccccc3)c(Cl)nc(NCCCN3CCCC3=O)c2=O)cc1 [1507-19],4%
11,N=C(N)c1ccc(CNC(=O)Cn2c(-c3ccc4c(c3)OCO4)c(Cl)nc(NCCc3ccncc3)c2=O)cc1 [1471-45],24%
12,CN(C)CCCNc1nc(Cl)c(-c2ccccc2)n(CC(=O)NCc2ccc(C(=N)N)cc2)c1=O [1507-47],19%
13,N=C(N)c1ccc(CNC(=O)Cn2c(-c3ccccc3)c(Cl)nc(NC3CCCCCC3)c2=O)cc1 [1512-16],10%
14,N=C(N)c1ccc(CNC(=O)Cn2c(-c3cccc(N)c3)cnc(NC3CCC3)c2=O)cc1 [Example 92],18% @ 30
15,N=C(N)c1ccc(CNC(=O)Cn2c(-c3ccsc3)c(Cl)nc(NC3CCC3)c2=O)cc1 [Example 1517-07],0%
16,N=C(N)c1ccc(CNC(=O)Cn2c(-c3ccc(Cl)cc3)c(Cl)nc(NCCc3ccccc3)c2=O)cc1 [1471-23],36%
17,N=C(N)c1ccc(CNC(=O)Cn2c(-c3ccccc3)c(Cl)nc(NCCc3ccccn3)c2=O)cc1 [1512-47],13%
18,COc1ccc(-c2c(Cl)nc(NCCc3ccc(Cl)cc3)c(=O)n2CC(=O)NCc2ccc(C(=N)N)cc2)cc1 [1471-34],24%
19,COc1cccc(CNc2nc(Cl)c(-c3ccccc3)n(CC(=O)NCc3ccc(C(=N)N)cc3)c2=O)c1OC [1512-02],3%
20,N=C(N)c1ccc(CNC(=O)Cn2c(-c3ccccc3)c(Cl)nc(NCCc3cccc(C(F)(F)F)c3)c2=O)cc1 [1512-41],4%
21,CCCCNc1nc(Cl)c(-c2ccccc2)n(CC(=O)NCc2ccc(C(=N)N)cc2)c1=O [1512-14],7%
22,N=C(N)c1ccc(CNC(=O)Cn2c(-c3ccccc3)c(Cl)nc(NCc3ccccc3OC(F)(F)F)c2=O)cc1 [1512-42],1%
23,C[C@H](C(=O)NCc1ccc(C(=N)N)cc1)n1c(-c2ccccc2)c(Cl)nc(NCc2ccccc2)c1=O [Example 1517-05],0%
24,CC(C)Nc1nc(Cl)c(-c2ccc(Cl)nc2)n(CC(=O)NCc2ccc(C(=N)N)cc2F)c1=O [Example 74],13%
25,N=C(N)c1ccc(CNC(=O)Cn2c(-c3cccc4ccccc34)c(Cl)nc(NCCc3ccccc3)c2=O)cc1 [Example 80],29% @ 30
26,N=C(N)c1ccc(CNC(=O)Cn2c(-c3ccccc3)c(Cl)nc(NCCC3=CCCCC3)c2=O)cc1 [1507-17],16%
27,C[C@@H](C(=O)NCc1ccc(C(=N)N)cc1)n1c(-c2ccccc2)c(Cl)nc(NC2CCC2)c1=O [Example 1517-09],0%
28,N=C(N)c1ccc(CNC(=O)Cn2c(-c3ccccc3)c(Cl)nc(NCc3ccccc3)c2=O)cc1 [1471-9],29%

# The next lines start with the values.
row,% Inhibition Factor Xa (30 µM),Compound
1,0%,N=C(N)c1ccc(CNC(=O)Cn2c(-c3ccccc3O)c(Cl)nc(NC3CCC3)c2=O)cc1 [Example 66]
2,3%,N=C(N)c1ccc(CNC(=O)Cn2c(-c3ccccc3)c(Cl)nc(NCc3cc(C(F)(F)F)ccc3F)c2=O)cc1 [1512-27]
3,9%,N=C(N)c1ccc(CNC(=O)Cn2c(-c3ccccc3)c(Cl)nc(NCc3ccncc3)c2=O)cc1 [1471-11]
4,9%,N=C(N)c1ccc(CNC(=O)Cn2c(-c3ccccc3)c(Cl)nc(NCCN3CCOCC3)c2=O)cc1 [1471-12]
5,8%,N=C(N)c1ccc(CNC(=O)Cn2c(-c3cccc(Cl)c3)c(Cl)nc(NCCN3CCOCC3)c2=O)cc1 [1471-28]
6,0%,N=C(N)c1ccc(CNC(=O)Cn2c(-c3c(Cl)cccc3Cl)c(Cl)nc(NCc3ccccc3)c2=O)cc1 [Example 1517-06]
7,10%,Cc1c(Cl)nc(NCc2ccccc2)c(=O)n1CC(=O)NCc1ccc(C(=N)N)cc1 [1471-1]
8,5%,CCOc1ccccc1CNc1nc(Cl)c(-c2ccccc2)n(CC(=O)NCc2ccc(C(=N)N)cc2)c1=O [1512-11]
9,16%,N=C(N)c1ccc(CNC(=O)Cn2c(-c3cccc(Cl)c3)c(Cl)nc(NCc3ccncc3)c2=O)cc1 [1471-27]
10,3%,N=C(N)c1ccc(CNC(=O)Cn2c(-c3ccccc3)c(Cl)nc(NC3CCS(=O)(=O)C3)c2=O)cc1 (stereo not shown) [1512-19]
11,0%,CCc1c(Cl)nc(NCCN2CCOCC2)c(=O)n1CC(=O)NCc1ccc(C(=N)N)cc1 [1471-60]
12,33% @ 30,Cc1cccc(-c2c(Cl)nc(NCCc3ccccc3)c(=O)n2CC(=O)NCc2ccc(C(=N)N)cc2)c1 [Example 81]
13,34%,N=C(N)c1ccc(CNC(=O)Cn2c(-c3ccc4c(c3)OCO4)c(Cl)nc(NCc3ccccc3)c2=O)cc1 [1471-41]
14,4%,N=C(N)c1ccc(CNC(=O)Cn2c(-c3ccccc3)c(Cl)nc(NC3CCCCCC3)c2=O)cc1 [1507-29]
15,22%,N=C(N)c1ccc(CNC(=O)Cn2c(-c3ccc4c(c3)OCO4)c(Cl)nc(NCCc3ccccc3)c2=O)cc1 [1471-47]
16,12%,CC(C)Nc1nc(Cl)c(-c2cccc(C(=O)O)c2)n(CC(=O)NCc2ccc(C(=N)N)cc2)c1=O [Example 65]
17,5%,N=C(N)c1ccc(CNC(=O)Cn2c(-c3ccccc3)c(Cl)nc(NCc3cc(F)c(F)c(F)c3)c2=O)cc1 [1512-32]
18,6%,CC1CCCC(Nc2nc(Cl)c(-c3ccccc3)n(CC(=O)NCc3ccc(C(=N)N)cc3)c2=O)C1C (stereo not shown) [1512-23]
19,12%,Cc1c(Cl)nc(NCCc2ccncc2)c(=O)n1CC(=O)NCc1ccc(C(=N)N)cc1 [1471-5]
20,31%,N=C(N)c1ccc(CNC(=O)Cn2c(-c3cccc(Cl)c3)c(Cl)nc(NCc3ccccc3)c2=O)cc1 [1471-25]

# Same assay, conditions: inhibitor at 100 µM
row,% Inhibition Factor Xa (100 µM) [%],Compound
1,0,O=C(Cn1c(-c2ccc(Cl)cc2)c(Cl)nc(NCCN2CCOCC2)c1=O)NCCc1ccncc1 [Example E-0031]
